The test system of one test is LLC cells. Kind of test: In vitro characterization of LLC cells (CSLEX-1 binding, lectin and PsIg flow cytometry). Format: cell-based. The protocol:
LLC cells were treated in culture for 4 days in the absence or presence of 50 μM peracetylated GlcNAcβ3Gal-NM. To quantitate sLex on the surface of LLC cells monoclonal antibody, CSLEX-1 binding to the cells was measured as described (Brown et al, J. Biol. Chem. 278: 23352-23359, 2003). […] Flow cytometry measures cell surface carbohydrate structures (Koenig et al, 1998). AAL and MAH are plant lectins. […] LLC cells have higher sialyltransferase activity than fucosyltransferase activity.

For test [1], the system named is LS180 cells adhering to TNF-α activated HMVEC. Kind of test: Adhesion of tumor cells to activated human endothelial cells. Format: cell-based. The conditions noted are these: LS180 cells grown 5 days with disaccharide. As for the experimental part: Adhesion of tumor cells to activated human endothelial cells. HMVEC were added to 96-well plates (1×10^4 cells/well) in EBM-2 media (Clonetics), and allowed to grow to confluence over 2 days. The cells were activated with TNF-α (20 ng/ml; R&D Systems) for 4 hr at 37° C. Calcein labeled tumor cells, harvested after growth for 5 days in various levels of AcGnG-NM, were added to HMVEC at 2.5×10^4 cells/well in 100 μl DMEM and allowed to settle for 20 min. The wells were washed twice with cold PBS, and the extent of binding was determined by fluorimetry. In some experiments anti-E-selectin mAb (2 μg/well) was added prior to addition of tumor cells, cells were treated with sialidase (20 mU/10^6 cells), or TNF-α was omitted.
AcGnG-NM inhibits adhesion to activated endothelia and platelets. In the circulation, tumor cells can encounter E- and P-selectins expressed on endothelial cells, P-selectin on platelets, and L-selectin on leukocytes. Since the presentation of receptors on cells may differ from their arrangement when immobilized on plastic surfaces, LS180 cells were challenged to bind to E-selectin expressed on TNF-α activated human microvascular endothelial cells (HMVEC). […] HMVEC were activated with TNF-α and overlaid with Calcein-loaded LS180 cells. The extent of adhesion was normalized to the value obtained for cells not treated with disaccharide. […]

Test [2] concerns cell-surface sLe^a of LS180 cells. Kind of test: Flow cytometry of cell-surface sLe^a (CA19-9). Format: cell-based, human. Particulars: 50 μM. As for the experimental part: Peracetylated forms of GlcNAcβ1,3Galβ-O-naphthalenemethanol (AcGnG-NM) and Galβ1,3Galβ-O-naphthalenemethanol (AcGG-NM) were prepared as described. Sarkar, et al., Carbohydr. Res., 329, 287-300, 2000. The compounds were dissolved in dimethylsulfoxide (DMSO) and added to growth medium to achieve the concentrations indicated in the figures. The supplemented medium was then exchanged for the medium in established cultures of cells in order to avoid lysis caused by adding concentrated DMSO directly to the plates. The final concentration of DMSO was adjusted to ≦0.5% (v/v). After the specified number of days, the cells were harvested with 2 mM EDTA in PBS (20 min) and used for the following experiments.
Cell Sorting. To detect the presence or absence of the relevant carbohydrate determinants, cells were stained with CSLEX-1 (anti-sLe^X, 5 μg/mL, Becton-Dickinson) or CA-19-9 ([…], 14.5 μg/mL, Chemicon) and analyzed by flow cytometry (FACScan Becton-Dickinson, Franklin Lakes, N.J.). […]
Treatment of LS180 cells with AcGnG-NM reduces cell-surface sLe^X, but not sLe^a. […] LS180 cells were grown in the presence of 50 μM AcGnG-NM, harvested with EDTA, stained with monoclonal antibodies (CSLEX-1, anti-sLe^X and CA19-9, anti-sLe^a) as indicated and analyzed by flow cytometry (Materials and Methods). […]
(In general: A flow cytometer gives signals particle by particle.)

In the case of “GlcNAcβ1,3Galβ-O-naphthalenemethanol [AcGnG-NM]”, the “sLex expression (CSLEX-1 binding)” value in the test with LLC cells (50 μM, 4 days) is reported as “reduces sLex expression”. Besides, in the test with LLC cells (flow cytometry), the “AAL reactivity (fucose)” value was “reduces AAL reactivity” and the “sialylation (MAH)” value was “no effect on sialylation”. In test [1], the “adhesion to TNF-α activated HMVEC” value is recorded as “inhibited adhesion”. Also, the “cell-surface sLe^a” value in test [2] is recorded as “no effect”.

For the origin of these results see US7772192B2, “Compositions and methods for treatment of disease with acetylated disaccharides” (The Regents of the University of California, priority 2003, dated 2010).
